The record followed here is the RepoRT retention time repository.

The data set in a line: Agilent ZORBAX 300 SB-C18, 150 × 1 mm, 3.5 µm; A: water + 0.01% heptafluorobutyric acid; B: acetonitrile + 0.01% heptafluorobutyric acid; gradient (min/%B) 0/0 100/90. Conditions: stereoisomer not certain.
In the case of `COC(=O)CCc1ccc(C)c(N)c1`, the LC retention time was found to be 9.03 min.
On to `COc1ccccc1NC(=O)c1ccc(COc2ccc3c(c2)CCC3)cc1`, for which the LC retention time was determined as 19.2 min.
In the case of `c1cncc(CN=Nc2nc(N3CCCCC3)nc(N3CCCCC3)n2)c1`, the LC retention time amounted to 11.5 min.
For `NCc1cc2ccccc2o1` the value was 8.09 min; for `O=C1CCCN1CP(=O)(O)CN1CCCC1=O`, 1.46 min; for `Cc1ccc(-c2cc(C)c(C)cc2C)nc1`, 10.6 min.
Regarding `CCOC(=O)c1c(C)n(-c2ccccc2)c2ccc(OC(C)=O)cc12`, the LC retention time worked out at 17 min.
As for `Cc1ccc2[nH]c3nc4ccccc4nc3c2c1`, the figure is 13.2 min; as for `COc1cc(NC(C)=O)cc(OC)c1OC`, 8.42 min; as for `O=CN1CCCCC1`, 7.47 min.
Turning to `O=C1NC2CCCCC2NC1CC(=O)N1CCN(Cc2ccccc2)CC1` (centres undefined), the LC retention time was determined as 7.88 min.
For `COc1ccc(OC)c(C(=O)C=Cc2ccc(OC)c(OC)c2OC)c1`, the LC retention time stood at 15.2 min.
As to `c1ccc2c(c1)CCCN2`, the LC retention time stood at 7.61 min.
`Cn1c(=O)c2c(-c3ccccc3)n(Cc3ccccc3)cc2n(C)c1=O`: the LC retention time is 14.3 min.
In the case of `O=C(CCN1C(=O)c2ccccc2C1=O)Nc1cccc(C(=O)O)c1`, the LC retention time amounted to 10.2 min.
Regarding `S=C(Nc1cccnc1)N(CCc1ccccc1)Cc1ccccc1`, the LC retention time is 12.8 min.
On to `CC(C)C[NH2+]C(CC(=O)O)c1ccccc1` (centres undefined), for which the LC retention time stood at 8.51 min.
As to `O=C1CCCN1c1ccc(O)cc1`, the LC retention time worked out at 7.71 min.
Consider `Cc1[nH]c(C)c(C(=O)Nc2ccccc2)c1C`, for which the LC retention time worked out at 11.9 min.
Turning to `C#CC(C)(C)NC(=O)NC(C)(C)C#C`, the LC retention time turned out to be 9.95 min.
With `CC(=O)c1cccc(N2C(=O)C3CCCCC3C2=O)c1` (centres undefined), the LC retention time came out at 12 min.
As to `O=C(O)c1cc(=O)[nH]c(=O)[nH]1`, the LC retention time came to 1.33 min.
For `Nc1ccc(C(=O)Nc2cccc3ccccc23)cc1`, the LC retention time came out at 11.1 min.
Turning to `CN(C)C(=O)Oc1cc(OC(=O)N(C)C)cc(C(O)CNC(C)(C)C)c1` (centres undefined), the LC retention time was determined as 9.59 min.
For `CC(=O)C(C)(C)C(C)=NN=C(N)c1ccc(C)cc1` the value was 9.26 min; for `CN(C)C1CCNC1` (centres undefined), 6.6 min; for `Cc1cccc(CN2CCN(C(=O)CC(C)C)CC2)c1`, 9.36 min.
For `S=C(NN=Cc1cccnc1)Nc1ccccc1`, the LC retention time is 9.9 min.
As for `O=C1NC(O)C(O)N1` (centres undefined), the LC retention time worked out at 1.42 min.
For the compound `CC=CC(=O)CC`, the LC retention time was determined as 9.41 min.
Take `CCOC(=O)C1(c2ccccc2)CCN(C)CC1`: the LC retention time is 9.81 min.
Consider `Nc1ccc2c(c1)nc(-c1ccccc1)c1cc(N)ccc12`, for which the LC retention time is 9.3 min.
As for `CN1C2CC(OC(=O)C(CO)c3ccccc3)CC1C1OC12` (centres undefined), the figure is 8.47 min; as for `O=C(Cc1cccc2ccccc12)N1CCN(Cc2ccccc2)CC1`, 10.4 min; as for `CCNC1(c2cccs2)CCCCC1`, 9.19 min.
For the compound `C[N+]12CCC(CC1)C1CC(O)CCC12` (centres undefined), the LC retention time is 6.39 min.
Regarding `c1ccc(CNCCNc2ccccc2)cc1`, the LC retention time worked out at 9.6 min.
As for `CCCNC(=O)Nc1ccc2c(c1)oc1ccccc12`, the LC retention time stood at 14 min.
Turning to `COc1cc2c(cc1OC)NC(=O)C2`, the LC retention time turned out to be 7.73 min.
For `Cc1ccc(-c2cc3ccccc3[nH]2)c(C)c1` the value was 17.6 min; for `COc1ccc2ccccc2c1C=NNC(=O)C(c1ccccc1)c1ccccc1`, 17.5 min.
On to `Nc1cc(=O)[nH]c(=S)n1C1CCCC1`, for which the LC retention time was 8.94 min.
Consider `O=C1CCCc2c1[nH]c1ccccc21`, for which the LC retention time was 12.3 min.
Consider `CSc1cccc2cccnc12`, for which the LC retention time turned out to be 11 min.
For `CCOC(=O)CC1CN(C)CCN1C` (centres undefined) the value was 7.31 min; for `CNCCCc1cc(C)ccc1O`, 8.44 min; for `CC(C)Cn1c(Cc2ccccc2)nc2ccccc21`, 11.4 min.
For `CNC(=S)NNC(C)=O` the value was 2.17 min; for `CNC(=S)N1CCCCC1`, 8.86 min; for `Cc1cn(COCc2ccccc2)c(=O)[nH]c1=O`, 9.82 min.
Take `CCc1ncc[nH]1`: the LC retention time worked out at 6.1 min.
Consider `CC(C)(C(=O)O)c1ccc(C(O)CCCN2CCC(C(O)(c3ccccc3)c3ccccc3)CC2)cc1` (centres undefined), for which the LC retention time stood at 11.5 min.
As to `O=C(NN=Cc1ccc(OCc2ccccc2)cc1)c1ccc(-c2ccccc2)cc1`, the LC retention time is 16.9 min.
For the compound `Cc1nccnc1C`, the LC retention time stood at 7.59 min.
Consider `Cc1ccc(-c2ccc(C(=O)O)[nH]2)cc1`, for which the LC retention time turned out to be 12 min.
For `NC(=O)NNC(=S)Nc1ccccc1` the value was 7.03 min; for `O=C(Nc1ccc2[nH]c(=O)[nH]c2c1)c1ccco1`, 7.75 min; for `S=C1NCN(CCC2=CCCCC2)CN1`, 10.2 min.
For the compound `C=CCC1(CC=C)CNCCN1`, the LC retention time was 7.33 min.
On to `CCn1cc(CCO)c2ccccc21`, for which the LC retention time turned out to be 11.7 min.
For the compound `Cc1cc(C)c2c(O)c(Cc3ccccc3)c(=O)[nH]c2c1`, the LC retention time stood at 12.6 min.
As to `CCN(CC)c1ccc(CNCCCN(C)C)cc1`, the LC retention time was determined as 7.76 min.
As for `NCC1(O)CCCCC1`, the figure is 7.06 min; as for `COc1ccc(N)c(C)c1C`, 8.59 min.
Turning to `C[N+](C)(CCOCc1ccccc1)CCOCc1ccccc1`, the LC retention time was determined as 11.7 min.
`Nc1ccc(OCc2ccccc2)cc1`: the LC retention time came out at 9.84 min.
In the case of `CC(C)OC(C)n1cccc1-c1ccccc1` (centres undefined), the LC retention time turned out to be 17.7 min.
Consider `CCC(NC(C)C)C(O)c1ccc(O)c2[nH]c(=O)ccc12` (centres undefined), for which the LC retention time amounted to 7.81 min.
With `CNCCOc1ccccc1`, the LC retention time was 8.08 min.
For `c1coc(C2NCCc3ccccc32)c1` (centres undefined), the LC retention time amounted to 8.65 min.
Regarding `CN(C)c1c[nH]c(=O)[nH]c1=O`, the LC retention time stood at 6.22 min.
Take `Cc1ccc(C(=O)C=Cc2ccco2)cc1`: the LC retention time was determined as 15.1 min.
In the case of `COc1c(C)cccc1C(=O)NC(CC(C)C)C(N)=O` (centres undefined), the LC retention time came out at 11.2 min.
With `CCCc1c(O)c2ccccc2[nH]c1=O`, the LC retention time worked out at 9.59 min.
With `c1cncc(-c2cc3ccccc3[nH]2)c1`, the LC retention time stood at 10.1 min.
Take `CCOC(=O)C(=CNc1ccccc1N)C(=O)OCC`: the LC retention time came to 12.8 min.
As to `c1ccc2c(c1)CCc1c-2[nH]c2ccccc12`, the LC retention time is 17.1 min.
Turning to `NCC(=O)Nc1ccccc1`, the LC retention time was 7.45 min.
Consider `O=C(NCCCn1c2ccccc2c2ccccc21)Nc1ccccc1`, for which the LC retention time was determined as 15.8 min.
`Cc1ccc(NC(=O)CCN2CCN(C)CC2)cc1`: the LC retention time stood at 8.34 min.
`c1cncc(-c2cccs2)c1`: the LC retention time worked out at 9.08 min.
`c1cncc(N2CCN(c3cccnc3)CC2)c1`: the LC retention time amounted to 7.33 min.
With `Cc1cc(C)nc(Nc2n[nH]c(C)n2)n1`, the LC retention time came out at 8.05 min.
`c1coc(C2=NCCN2)c1`: the LC retention time was found to be 6.73 min.
As for `CCCOC(C)n1cccc1-c1ccccc1` (centres undefined), the LC retention time turned out to be 18 min.
On to `Cc1ccc(-c2nn(CC(=O)Nc3cccnc3)c(=O)c3ccccc23)cc1`, for which the LC retention time came to 11.3 min.
For `O=CNC1CCCCC1` the value was 8.38 min; for `CCn1ccc(C(C)C)c1-c1ccccc1`, 19 min; for `CC(C)CN`, 6.34 min.
Consider `COC(=O)c1nnc(-c2ccccc2)c(-c2ccccc2)n1`, for which the LC retention time came to 13.6 min.
For the compound `CCOC(=O)C(N)CCCN=C(N)N` (centres undefined), the LC retention time came to 7.25 min.
Turning to `CN1CCCNCC1`, the LC retention time worked out at 6.55 min.
As for `CCCNC`, the figure is 5.85 min; as for `CCN(CC)CCOc1ccccc1OC`, 8.83 min.
On to `CN1CCN(c2nc(N)cc(=O)[nH]2)CC1`, for which the LC retention time worked out at 5.8 min.
Consider `Cc1ccc(C(=O)c2ccc(CC(=O)O)n2C)cc1`, for which the LC retention time came out at 10.5 min.
`Cc1ccc(N)cc1C(=O)O`: the LC retention time was 7.34 min.
For `Cc1cncc(C)n1` the value was 7.44 min; for `O=C(NC(c1ccccc1)c1ccccc1)c1cccnc1`, 12.1 min.
As to `Nc1cc(N)cc(C(=O)O)c1`, the LC retention time was 4.34 min.
For `S=c1[nH]c(-c2ccccc2)c(-c2ccccc2)n1-c1ccccc1`, the LC retention time is 14.4 min.
For `OC1CCNCC1` the value was 2.8 min; for `Oc1cccc(N2Cc3ccccc3C2)c1`, 13.9 min; for `CCNCC`, 5.17 min.
Regarding `Cc1ccc(C(C)C)c(OCCN)c1`, the LC retention time is 10.2 min.
Turning to `c1ccc2c(-n3ccnc3)nccc2c1`, the LC retention time is 8.37 min.
As for `CCCCCCCCCn1cc[n+](CCCCCCCCC)c1C`, the LC retention time was determined as 17.8 min.
With `CCCNC(=O)Nc1ccc(C(=O)OC)cc1`, the LC retention time was 10.8 min.
Turning to `CC1C(=O)CCN(C(C)(C)C)C1C` (centres undefined), the LC retention time came out at 8.44 min.
As for `Nc1ccc2[nH]ccc2c1`, the figure is 7.01 min; as for `O=C(N=CNC(=O)c1cccnc1)c1cccnc1`, 7.45 min; as for `CN1c2ccccc2CCc2cc(C=O)ccc21`, 16.3 min.
`O=C(NCCCCc1ccccc1)c1ccc2ccccc2n1`: the LC retention time was 17.2 min.
For `CNCc1cccs1` the value was 7 min.
